According to ChEMBL document CHEMBL4152195, “Lipid reducing activity and toxicity profiles of a library of polyphenol derivatives” (Eur J Med Chem, 2018):
Activity calls are given as the source filed them. The rule behind the calls is not given here.

How the values were obtained:
[1] = species: Danio rerio; assay: Toxicity in zebra fish larvae at 5 uM after 48 hrs; assay type: organism-based; details: zebrafish, in vivo
[2] = tested on: 3T3-L1; assay: Cytotoxicity against mouse 3T3L1 cells at 50 uM after 24 hrs by sulforhodamine B assay; assay type: cell-based; details: 3t3-l1, 24 h
[3] = tested on: 3T3-L1; assay: Cytotoxicity against mouse 3T3L1 cells at 50 uM after 48 hrs by sulforhodamine B assay; assay type: cell-based; details: 3t3-l1, 48 h
[4] = species: Danio rerio; assay: Lipid lowering activity in zebrafish embryos by Nile red fat metabolism assay; assay type: functional, organism-based
[5] = species: Danio rerio; assay: Lipid lowering activity in zebrafish embryos at 5 uM by Nile red fat metabolism assay; assay type: functional, organism-based

Structure (SMILES) | Activity [1] | Activity [2] | Activity [3] | EC50 [4] | Activity [5]
CC(C)=CCOc1ccc2oc3ccccc3c(=O)c2c1OCC=C(C)C | 0 to 25% | 26 to 50% | 51 to 75% |  | 
COc1ccc2c(=O)c3cc(C(=O)N[C@H](CO)c4ccccc4)ccc3oc2c1 | 0 to 25% | 51 to 75% | 26 to 50% |  | 
COc1c(O)cc2oc3cc(O)c(CC=C(C)C)c(O)c3c(=O)c2c1CC=C(C)C [MANGOSTIN] | 76 to 100% | 76 to 100% | 76 to 100% |  | 
CC1(C)C=Cc2c(cc3c(=O)c4ccccc4oc3c2O)O1 | 0 to 25% | 0 to 25% | 0 to 25% | 560 nM | Active
COc1ccc2c(=O)c3ccccc3oc2c1OC | 0 to 25% | 0 to 25% | 0 to 25% | 360 nM | Active
O=C(O)Cc1cccc2oc3ccccc3c(=O)c12 | 0 to 25% | 0 to 25% | 26 to 50% |  | 
COc1c2c(cc3c(=O)c4cc(Cl)ccc4oc13)OC(C)(C)CC2 | 0 to 25% | 0 to 25% | 0 to 25% | 860 nM | Active
O=C(O)Cc1ccc2oc3ccccc3c(=O)c2c1 | 0 to 25% | 0 to 25% | 0 to 25% |  | 
COc1ccc2oc3ccccc3c(=O)c2c1OC | 0 to 25% | 0 to 25% | 0 to 25% | 620 nM | Active
O=c1c2ccccc2oc2cccc(OCCCCCCOc3cccc4oc5ccccc5c(=O)c34)c12 | 0 to 25% | 0 to 25% | 51 to 75% |  | 
COc1ccc2c(=O)c3ccccc3oc2c1O | 0 to 25% | 0 to 25% | 0 to 25% | 480 nM | Active
O=c1c2ccccc2oc2cccc(OCCCCCBr)c12 | 0 to 25% | 0 to 25% | 26 to 50% |  | Active
O=c1c2cc(O)c(O)cc2oc2cc(O)c([C@@H]3O[C@H](CO)[C@@H](O)[C@H](O)[C@H]3O)c(O)c12 [MANGIFERIN] | 0 to 25% | 0 to 25% | 0 to 25% |  | 
CCCOc1ccc(NCCN(CC)CC)c2c(=O)c3ccccc3sc12.Cl | 76 to 100% | 76 to 100% | 76 to 100% |  | 
COc1c2c(cc3c(=O)c4ccc(O)cc4oc13)CCC(C)(C)O2 | 0 to 25% | 0 to 25% | 0 to 25% |  | 
COc1c2c(cc3c(=O)c4cc(C)ccc4oc13)CCC(C)(C)O2 | 0 to 25% | 0 to 50% | 0 to 25% | 420 nM | Active
CC1(C)C=Cc2cc3c(=O)c4ccccc4oc3c(O)c2O1 | 0 to 25% | 0 to 25% | 0 to 25% | 1440 nM | Active
COc1c2c(cc3c(=O)c4ccccc4oc13)OC(C)(C)C=C2 | 0 to 25% | 26 to 50% | 51 to 75% |  | Active
CCCOc1ccc(OC)c2c(=O)c3ccccc3sc12 | 0 to 25% | 0 to 25% | 51 to 75% |  | Active
O=c1c2ccccc2oc2c(O)cccc12 | 0 to 25% | 0 to 25% | 0 to 25% |  | 
CC(C)[C@@H](CO)NC(=O)COc1ccc2c(=O)c3ccccc3oc2c1 | 0 to 25% | 0 to 25% | 0 to 25% |  | 

Structure (SMILES) | Activity [1] | Activity [2] | Activity [3] | EC50 [4] | Activity [5]
O=Cc1c(O)ccc2c(=O)c3ccc(O)c(C=O)c3oc12 | 0 to 25% | 26 to 50% | 51 to 75% |  | 
C#CCOc1ccc2c(=O)c3ccc(OCC#C)cc3oc2c1 | 0 to 25% | 0 to 25% | 0 to 25% |  | 
COc1cc([C@H]2Oc3ccc4c(=O)c5ccccc5oc4c3O[C@@H]2CO)ccc1O | 0 to 25% | 0 to 25% | 0 to 25% |  | 
COc1ccccc1C(=O)c1ccc(OC)c(OC)c1O | 0 to 25% | 0 to 25% | 51 to 75% |  | 
O=c1c2ccccc2sc2c(O)ccc(Cl)c12 | 0 to 25% | 0 to 25% | 51 to 75% |  | Active
O=c1c2ccccc2oc2cccc(O)c12 | 0 to 25% | 0 to 25% | 0 to 25% | 620 nM | Active
CC(C)[C@H](CO)NC(=O)COc1ccc2c(=O)c3ccccc3oc2c1 | 0 to 25% | 0 to 25% | 0 to 25% |  | 
CC(=O)Oc1ccc(C(=O)c2ccc(OC(C)=O)c(OC(C)=O)c2)cc1OC(C)=O | 0 to 25% | 26 to 50% | 51 to 75% |  | 
C#CCOc1ccc(/C=C/C(=O)/C=C/c2ccc(OCC#C)c(OC)c2)cc1OC | 0 to 25% | 26 to 50% | 0 to 25% |  | Active
O=c1c2ccccc2oc2ccc(O)cc12 | 0 to 25% | 0 to 25% | 0 to 25% | 760 nM | Active
COc1cc(C=O)c2c(=O)c3ccccc3oc2c1OC | 0 to 25% | 0 to 25% | 51 to 75% |  | Active
COC(=O)c1ccccc1Oc1ccc(OC)c(OC)c1 | 0 to 25% | 0 to 25% | 51 to 75% |  | 
O=c1c2ccc(O)cc2oc2cc(O)ccc12 | 0 to 25% | 0 to 25% | 0 to 25% |  | 
O=c1c2ccccc2oc2ccccc12 [XANTHONE] | 0 to 25% | 0 to 25% | 0 to 25% |  | 
COc1cc(CO)c2c(=O)c3ccccc3oc2c1OC | 0 to 25% | 0 to 25% | 26 to 50% |  | Active
COc1c(O)ccc2c(=O)c3ccccc3oc12 | 0 to 25% | 0 to 25% | 0 to 25% |  | 
Cc1c(O)cc2oc3ccccc3c(=O)c2c1O | 0 to 25% | 26 to 50% | 0 to 25% |  | 
O=c1c2ccccc2oc2c(O)c(O)ccc12 [3,4-DIHYDROXYXANTHONE] | 0 to 25% | 26 to 50% | 51 to 75% |  | Active
COc1cc2c(c3oc4ccccc4c(=O)c13)OC(C)(C)C=C2 | 76 to 100% | 51 to 75% | 51 to 75% |  | Active
C=CCOc1ccc(/C=C/C(=O)/C=C/c2ccc(OCC=C)c(OC)c2)cc1OC | 0 to 25% | 0 to 25% | 0 to 25% |  | Active
CCCOc1ccc(N2CCCCC2)c2c(=O)c3ccccc3sc12 | 76 to 100% | 26 to 50% | 51 to 75% |  | 

Structure (SMILES) | Activity [1] | Activity [2] | Activity [3] | EC50 [4] | Activity [5]
COc1cc2oc3c(OC)c4c(cc3c(=O)c2cc1OC)OC(C)(C)CC4 | 0 to 25% | 0 to 25% | 0 to 25% |  | 
COc1cccc2c(=O)c3cc4c(c(O)c3oc12)OC(C)(C)CC4 | 0 to 25% | 51 to 75% | 51 to 75% |  | 
COc1cc(C(Br)Br)c2c(=O)c3ccccc3oc2c1OC | 0 to 25% | 26 to 50% | 51 to 75% |  | Active
COc1ccc(Oc2ccccc2C(=O)O)cc1OC | 0 to 25% | 0 to 25% | 0 to 25% |  | 
CCCOc1ccc(NCCN(CC)CC)c2c(=O)c3ccccc3sc12 | 76 to 100% | 0 to 100% | 51 to 100% |  | 
COc1cc(/C=C/C(=O)/C=C/c2ccc(OCc3cn(CCO[C@H]4O[C@@H](COC(C)=O)[C@H](OC(C)=O)[C@@H](OC(C)=O)[C@@H]4NC(C)=O)nn3)c(OC)c2)ccc1OCc1cn(CCO[C@@H]2O[C@H](COC(C)=O)[C@@H](OC(C)=O)[C@H](OC(C)=O)[C@@H]2NC(C)=O)nn1 | 0 to 25% | 0 to 25% | 0 to 25% |  | 
O=C(O)Cc1ccc2c(=O)c3ccccc3oc2c1 | 0 to 25% | 0 to 25% | 0 to 25% |  | Active
C=Cc1cc2c(=O)c3ccccc3oc2c(OC)c1O | 0 to 25% | 0 to 25% | 51 to 75% |  | Active
CCN(CC)c1ccc2c(=O)c3cc4c(c(OC)c3oc2c1)CCC(C)(C)O4 | 76 to 100% | 51 to 75% | 51 to 75% |  | Active
O=c1c2ccccc2oc2cc(O)ccc12 | 0 to 25% | 0 to 25% | 0 to 25% |  | 
COc1cc(/C=C/C(=O)/C=C/c2ccc(O)c(OC)c2)ccc1O | 0 to 25% | 0 to 25% | 0 to 25% |  | Active
CCCOc1ccc(NNC(=O)c2ccncc2)c2c(=O)c3ccccc3sc12 | 51 to 75% | 0 to 25% | 51 to 75% |  | 
O=C(COc1ccc2c(=O)c3ccccc3oc2c1)N[C@H](c1ccccc1)[C@@H](O)c1ccccc1 | 0 to 25% | 76 to 100% | 0 to 25% |  | Active
O=C(COc1ccc2c(=O)c3ccccc3oc2c1)N[C@@H](c1ccccc1)[C@H](O)c1ccccc1 | 0 to 25% | 76 to 100% | 0 to 25% |  | 
O=c1c2ccc(O[C@H]3O[C@H](CO)[C@@H](O)[C@@H](O)[C@@H]3O)cc2oc2cc(O[C@@H]3O[C@@H](CO)[C@H](O)C(O)[C@H]3O)ccc12 (some centres undefined) | 0 to 25% | 0 to 25% | 26 to 50% |  | 
COc1ccc2oc3ccccc3c(=O)c2c1 | 0 to 25% | 51 to 75% | 0 to 25% |  | Active
COc1cccc2c(=O)c3ccccc3oc12 | 0 to 25% | 26 to 50% | 0 to 25% |  | Active
COc1ccc2c(=O)c3cc(C(=O)N[C@@H](CO)c4ccccc4)ccc3oc2c1 | 0 to 25% | 0 to 25% | 0 to 25% |  | Active
O=Cc1cc(O)c(O)c2oc3ccccc3c(=O)c12 | 0 to 25% | 0 to 25% | 51 to 75% |  | 
COc1cc(C=O)c2c(=O)c3ccccc3oc2c1O | 0 to 25% | 0 to 25% | 51 to 75% |  | Active
